Patent US20100172854A1, “ANTIBACTERIAL FORMULATIONS” (priority 2007, published 2010)
Values after ≈ are worked out from the molar mass of the structure shown.

Assays:
S. aureus ATCC 12602 [1] = assay: MBC assay; type: cell-based, Staphylococcus aureus
Method: (§1) The staphylococci were cultured and maintained on Mueller-Hinton Medium (agar and broth) at pH 7.2; cultures were incubated aerobically at 37° C. for 19-20 hours.
(§2) This assay, normally carried out after an MIC assay, determines the minimum concentration of a compound that is lethal to the micro-organism being tested.
(§3) These samples were then individually sub-cultured on antibiotic-free agar medium, under the incubation conditions described above. Following incubation they were examined visually for microbial growth.

S. aureus ATCC 12604 = assay: MBC assay; type: cell-based, Staphylococcus aureus
Method: as §1, §2, §3

[2] = tested on: S. aureus CPHL GISA HO41340156; assay: MBC assay; type: cell-based, Staphylococcus aureus; conditions: resistance phenotype Van/Tec (intermediate)
Method: as §1, §2, §3

S. aureus CPHL EMRSA 17 = assay: MBC assay; type: cell-based, Staphylococcus aureus; conditions: resistance phenotype Met/β-lactams
Method: as §1, §2, §3

S. aureus ATCC 12605 [3] = assay: MBC assay; type: cell-based, Staphylococcus aureus
Method: as §1, §2, §3

S. aureus CPHL EMRSA 16 [4] = assay: MBC assay; type: cell-based, Staphylococcus aureus; conditions: resistance phenotype Met/β-lactams
Method: as §1, §2, §3

S. aureus CPHL EMRSA 15 = assay: MBC assay; type: cell-based, Staphylococcus aureus; conditions: resistance phenotype Met/β-lactams
Method: as §1, §2, §3

S. aureus ATCC 12606 = assay: MBC assay; type: cell-based, Staphylococcus aureus
Method: as §1, §2, §3

S. aureus NCTC 12493 [5] = assay: MBC assay; type: cell-based, Staphylococcus aureus
Method: as §1, §2, §3

S. aureus ATCC 12601 = assay: MBC assay; type: cell-based, Staphylococcus aureus
Method: as §1, §2, §3

S. aureus ATCC 12607 [6] = assay: MBC assay; type: cell-based, Staphylococcus aureus
Method: as §1, §2, §3

S. aureus ATCC 25923 [7] = assay: MBC assay; type: cell-based, Staphylococcus aureus
Method: as §1, §2, §3

S. aureus CPHL VISA Mu50 [8] = assay: MBC assay; type: cell-based, Staphylococcus aureus; conditions: resistance phenotype Van (intermediate)
Method: as §1, §2, §3

S. aureus CPHL VISA Mu3 = assay: MIC assay; type: cell-based; conditions: Staphylococcus aureus
Method: as §1
(§4) This is a standard international method for quantitatively assessing the antimicrobial activity of a compound in a liquid medium. The method used a sterile 96-well microtitre plate, capable of holding about 200 μl of liquid per well. The wells contained liquid culture medium and ranges of decreasing concentrations of the relevant test compound in doubling dilutions (e.g. 1000, 500, 250, 125 . . . μg/ml, etc. down to 0.49 μg/ml). The culture media were as described above.
(§5) The wells were inoculated with a liquid suspension of freshly grown micro-organism and incubated under the conditions described above. After incubation, the microtitre plate was examined visually (with the aid of a light box) for cloudiness in each well, which would indicate microbial growth. The MIC value was recorded as the lowest concentration of test compound required to inhibit microbial growth, i.e. the lowest concentration for which the liquid in the well remained clear.
(§6) The assays included both negative (culture medium with no micro-organisms) and positive (culture medium plus diluting solvent plus micro-organism) controls.

S. aureus ATCC 12602 [9] = assay: MIC assay; type: cell-based; conditions: Staphylococcus aureus, ATCC12602
Method: as §1, §4, §5, §6

[10] = tested on: Staphylococcus hominis ATCC 27844; assay: MIC assay; type: cell-based; conditions: ATCC27844
Method: as §1, §4, §5, §6

[11] = tested on: Staphylococcus warneri ATCC 27836; assay: MIC assay; type: cell-based; conditions: ATCC27836
Method: as §1, §4, §5, §6

[12] = tested on: Staphylococcus capitis ATCC 27840; assay: MIC assay; type: cell-based; conditions: ATCC27840
Method: as §1, §4, §5, §6

S. aureus ATCC 12605 [13] = assay: MIC assay; type: cell-based; conditions: Staphylococcus aureus, ATCC12605
Method: as §1, §4, §5, §6

S. aureus NCTC 12981 = assay: MIC assay; type: cell-based; conditions: Staphylococcus aureus, NCTC12981
Method: as §1, §4, §5, §6

S. aureus CPHL EMRSA 16 [14] = assay: MIC assay; type: cell-based; conditions: Staphylococcus aureus
Method: as §1, §4, §5, §6

[15] = tested on: S. saprophyticus NCTC 7292; assay: MIC assay; type: cell-based; conditions: Staphylococcus saprophyticus, NCTC7292
Method: as §1, §4, §5, §6

[16] = tested on: Staphylococcus aureus ATCC 29213; assay: MIC assay; type: cell-based; conditions: ATCC29213, S. aureus ATCC 29213
Method: as §1, §4, §5, §6

[17] = tested on: Staphylococcus auricularis ATCC 33753; assay: MIC assay; type: cell-based; conditions: ATCC33753
Method: as §1, §4, §5, §6

S. aureus NCTC 12493 [18] = assay: MIC assay; type: cell-based; conditions: Staphylococcus aureus, NCTC12493, resistance phenotype Met
Method: as §1, §4, §5, §6

[19] = tested on: Staphylococcus xylosus ATCC 29971; assay: MIC assay; type: cell-based; conditions: ATCC29971
Method: as §1, §4, §5, §6

S. aureus ATCC 12607 [20] = assay: MIC assay; type: cell-based; conditions: Staphylococcus aureus, ATCC12607
Method: as §1, §4, §5, §6

S. aureus ATCC 25923 [21] = assay: MIC assay; type: cell-based; conditions: Staphylococcus aureus, ATCC25923
Method: as §1, §4, §5, §6

S. aureus CPHL VISA Mu50 [22] = assay: MIC assay; type: cell-based; conditions: Staphylococcus aureus, resistance phenotype Van (intermediate)
Method: as §1, §4, §5, §6

Q: What does the source list for `Cc1cc(Cc2cc(C)cc(C(C)(C)C)c2O)c(O)c(C(C)(C)C)c1` [AO 2246, 2,2′-methylene-bis(4-methyl-6-tert-butylphenol)]?
A: MIC/MBC Ratio (S. aureus ATCC 12602 [1]): 0.5; MBC (S. aureus ATCC 12602 [1]; Staphylococcus aureus, ATCC12602): 3.9 µg/mL (≈ 11.5 µM); MIC/MBC Ratio (S. aureus ATCC 12604): 0.5; MBC (S. aureus ATCC 12604; Staphylococcus aureus, ATCC12604): 3.9 µg/mL (≈ 11.5 µM); MBC ([2]; Staphylococcus aureus): 3.9 µg/mL (≈ 11.5 µM); MIC/MBC Ratio [2]: 0.5; MBC (S. aureus CPHL EMRSA 17; Staphylococcus aureus): 7.8 µg/mL (≈ 22.9 µM); MIC/MBC Ratio (S. aureus CPHL EMRSA 17): 0.25; MIC/MBC Ratio (S. aureus ATCC 12605 [3]): 1; MBC (S. aureus ATCC 12605 [3]; Staphylococcus aureus, ATCC12605): 1.95 µg/mL (≈ 5.73 µM); MBC (S. aureus CPHL EMRSA 16 [4]; Staphylococcus aureus): 7.8 µg/mL (≈ 22.9 µM); MIC/MBC Ratio (S. aureus CPHL EMRSA 16 [4]): 0.25; MBC (S. aureus CPHL EMRSA 15; Staphylococcus aureus): 7.8 µg/mL (≈ 22.9 µM); MIC/MBC Ratio (S. aureus CPHL EMRSA 15): 0.25; MIC/MBC Ratio (S. aureus ATCC 12606): 0.5; MBC (S. aureus ATCC 12606; Staphylococcus aureus, ATCC12606): 3.9 µg/mL (≈ 11.5 µM); MIC/MBC Ratio (S. aureus NCTC 12493 [5]; S. aureus NCTC 12493, resistance phenotype Met): 0.5; MBC (S. aureus NCTC 12493 [5]; Staphylococcus aureus, NCTC12493): 1.95 µg/mL (≈ 5.73 µM); MIC/MBC Ratio (S. aureus ATCC 12601): 1; MBC (S. aureus ATCC 12601; Staphylococcus aureus, ATCC12601): 1.95 µg/mL (≈ 5.73 µM); MIC/MBC Ratio (S. aureus ATCC 12607 [6]): 0.25; MBC (S. aureus ATCC 12607 [6]; Staphylococcus aureus, ATCC12607): 7.8 µg/mL (≈ 22.9 µM); MIC/MBC Ratio (S. aureus ATCC 25923 [7]): 1; MBC (S. aureus ATCC 25923 [7]; Staphylococcus aureus, ATCC25923): 7.8 µg/mL (≈ 22.9 µM); MBC (S. aureus CPHL VISA Mu50 [8]; Staphylococcus aureus): 15.6 µg/mL (≈ 45.8 µM); MIC/MBC Ratio (S. aureus CPHL VISA Mu50 [8]): 0.06; MIC (S. aureus CPHL VISA Mu3): 1.95 µg/mL (≈ 5.73 µM); MIC (S. aureus ATCC 12602 [9]): 1.95 µg/mL (≈ 5.73 µM); MIC [10]: 7.8 µg/mL (≈ 22.9 µM); MIC [11]: 15.6 µg/mL (≈ 45.8 µM); MIC [12]: 3.9 µg/mL (≈ 11.5 µM); MIC (S. aureus ATCC 12605 [13]): 1.95 µg/mL (≈ 5.73 µM); MIC (S. aureus NCTC 12981): 1.95 µg/mL (≈ 5.73 µM); MIC (S. aureus CPHL EMRSA 16 [14]): 1.95 µg/mL (≈ 5.73 µM); MIC [15]: 3.9 µg/mL (≈ 11.5 µM); MIC [16]: 3.9 µg/mL (≈ 11.5 µM); MIC [17]: 1.95 µg/mL (≈ 5.73 µM); MIC (S. aureus NCTC 12493 [18]): 0.98 µg/mL (≈ 2.88 µM); MIC [19]: 3.9 µg/mL (≈ 11.5 µM); MIC (S. aureus ATCC 12607 [20]): 1.95 µg/mL (≈ 5.73 µM); MIC (S. aureus ATCC 25923 [21]): 7.8 µg/mL (≈ 22.9 µM); MIC (S. aureus CPHL VISA Mu50 [22]): 0.98 µg/mL (≈ 2.88 µM)
